Test results taken from patent US10336707B2, “Heterocyclic derivatives modulating activity of certain protein kinases” (EUDENDRON S.R.L., priority 2014, dated 2019).
pIC50: −log10 of the molar value.

Legend:
RET V804M = target: T1, RET V804M (Homo sapiens, UniProt P07949, V804M); experiment: Radiometric protein kinase assay (33PanQuinase Activity Assay), RET V804M; type: biochemical; conditions: ATP 0.3 μM
T1 construct: either as full-length or enzymatically active fragments; purchased ProQinase GmbH (Freiburg, Germany)
Protocol: A proprietary radiometric protein kinase assay (33PanQuinase® Activity Assay) developed by ProQuinase GmbH (Freiburg, Germany) was used for measuring the kinase activity of selected protein kinases. All assays were performed in FlashPlates™ wells 96 Perkin Elmer (Boston, Mass., USA) in a reaction volume of 50 μl. The reaction mixture was obtained in 4 steps in the following order: • 1. 10 μl of a solution of non-radioactive ATP in water; • 2. 25 μl of assay buffer/[γ-^33P]-ATP mixture • 3. 5 μl of test sample in 10% DMSO • 4. 10 μl of enzyme/substrate mixture
All protein kinases provided by ProQinase were expressed in Sf9 insect cells or in E. coli as recombinant GST-fusion proteins or His-tagged proteins, either as full-length or enzymatically active fragments. […] Kinases from external vendors (CAR=Carna Biosciences Inc.; INV=Life Technologies (Invitrogen Corporation); MIL=Merck-Millipore (Millipore Corporation), were expressed, purified and quality-controlled by virtue of the vendors readings.
A stock solution of compound of formula (I) was diluted to 5×10-04M/100% DMSO. […] Incorporation of 33Pi (counting of “cpm”) was determined with a microplate scintillation counter (Microbeta, Wallac). […]
Based on each 10 corresponding residual activities, IC50 values were calculated using Prism 5.04 for Windows (Graphpad, San Diego, Calif.). […]

BaF3 NPM-ALK L1152R = target: T2, BaF3 NPM-ALK L1152R (Homo sapiens, UniProt Q9UM73, L1152R, cells depend on it); experiment: Tritiated thymidine uptake cell proliferation assay, BaF3 NPM-ALK L1152R; type: cell-based, murine; conditions: cell line BaF3 NPM-ALK L1152R; read-out: IC50 of cellular proliferation, BaF3 NPM-ALK L1152R
T2 construct: fused on or other part: P06748 (Nucleophosmin)
Protocol: Method: Tritiated Thymidine Uptake Cell Proliferation Assay
The following procedure was used with parent untransformed BaF3 cells, BaF3 cells transformed with the oncogenic fusion protein NPM/ALK, NPM/ALK positive SUDHL-1 cells, NPM/ALK positive SUPM2, ALK-negative HL60 cells, NPM/ALK positive KARPAS-299 cells. The parent untransformed BaF3 cells or Alk-negative HL60 cells are used as controls. Cells were seeded in U-bottomed 96-well plates at 10000 cells/well in a volume of 100 μl in supplemented medium. In the case of the parent untransformed BaF3 cells, the medium was supplemented with IL-3. Serial dilutions of inhibitors were added to the appropriate wells and volumes adjusted to 200 μl. Controls were treated with the equivalent volume of vehicle, DMSO, alone. Plates were incubated at 37° C. for 72 h. 3[H]-thymidine (1 μCi/well) was added for the last 16 h of incubation. Cells were harvested on to paper filters and 3[H]-thymidine incorporation was measured using a scintillation counter (1430 MicroBeta, Wallac, Turku, Finland). The 50% inhibitory concentration (IC50) was defined as the concentration of inhibitor, expressed in nanomolar units, that gave a 50% decrease in 3[H]-thymidine uptake compared with controls.
In Table 4 are reported the IC50 of cellular proliferation assays of example 3 versus ALK positive, mutated and negative cell lines.

T2 sequence (Q9UM73 whole entry L1152R, the tested form may be a part): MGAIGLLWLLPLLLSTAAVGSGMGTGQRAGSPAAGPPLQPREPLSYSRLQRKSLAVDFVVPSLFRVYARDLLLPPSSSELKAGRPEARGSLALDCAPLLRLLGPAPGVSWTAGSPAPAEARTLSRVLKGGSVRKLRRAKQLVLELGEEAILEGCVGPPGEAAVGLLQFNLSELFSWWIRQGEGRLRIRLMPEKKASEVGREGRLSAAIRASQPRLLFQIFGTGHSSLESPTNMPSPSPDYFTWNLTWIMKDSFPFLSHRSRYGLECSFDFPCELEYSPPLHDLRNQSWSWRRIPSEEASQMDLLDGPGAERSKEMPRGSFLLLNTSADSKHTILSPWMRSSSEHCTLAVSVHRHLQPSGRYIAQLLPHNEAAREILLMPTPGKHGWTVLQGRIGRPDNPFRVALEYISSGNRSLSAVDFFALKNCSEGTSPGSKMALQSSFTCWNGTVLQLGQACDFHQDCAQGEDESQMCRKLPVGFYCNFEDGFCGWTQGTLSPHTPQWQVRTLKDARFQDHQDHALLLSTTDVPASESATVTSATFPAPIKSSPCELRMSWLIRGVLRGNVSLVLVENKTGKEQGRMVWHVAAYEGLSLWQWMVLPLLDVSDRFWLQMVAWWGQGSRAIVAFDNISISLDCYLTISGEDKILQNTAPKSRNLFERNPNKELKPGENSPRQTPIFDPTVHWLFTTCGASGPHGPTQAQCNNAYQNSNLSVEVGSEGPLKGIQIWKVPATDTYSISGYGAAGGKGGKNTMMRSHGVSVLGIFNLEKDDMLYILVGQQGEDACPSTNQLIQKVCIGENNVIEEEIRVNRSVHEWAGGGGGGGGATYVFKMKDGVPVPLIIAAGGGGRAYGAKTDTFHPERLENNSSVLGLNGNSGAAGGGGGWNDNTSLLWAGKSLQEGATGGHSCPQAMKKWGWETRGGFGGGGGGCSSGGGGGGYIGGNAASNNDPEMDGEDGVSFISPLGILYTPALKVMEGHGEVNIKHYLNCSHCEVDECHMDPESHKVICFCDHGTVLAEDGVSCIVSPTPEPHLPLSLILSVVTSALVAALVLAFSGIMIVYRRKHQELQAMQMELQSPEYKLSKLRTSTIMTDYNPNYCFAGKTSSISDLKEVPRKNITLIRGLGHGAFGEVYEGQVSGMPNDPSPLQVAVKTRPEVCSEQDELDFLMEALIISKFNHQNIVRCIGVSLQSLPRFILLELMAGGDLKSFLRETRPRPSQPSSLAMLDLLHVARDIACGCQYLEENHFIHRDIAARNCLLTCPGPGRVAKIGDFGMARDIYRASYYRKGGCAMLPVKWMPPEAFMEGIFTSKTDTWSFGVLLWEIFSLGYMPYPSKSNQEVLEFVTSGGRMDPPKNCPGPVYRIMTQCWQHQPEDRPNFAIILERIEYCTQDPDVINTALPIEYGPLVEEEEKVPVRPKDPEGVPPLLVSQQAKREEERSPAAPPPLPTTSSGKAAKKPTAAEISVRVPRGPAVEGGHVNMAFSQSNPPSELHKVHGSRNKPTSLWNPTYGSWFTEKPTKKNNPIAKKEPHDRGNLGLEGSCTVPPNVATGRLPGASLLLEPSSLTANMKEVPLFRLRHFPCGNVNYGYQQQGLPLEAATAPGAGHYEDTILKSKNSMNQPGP
T1 sequence (P07949 29-1114 V804M): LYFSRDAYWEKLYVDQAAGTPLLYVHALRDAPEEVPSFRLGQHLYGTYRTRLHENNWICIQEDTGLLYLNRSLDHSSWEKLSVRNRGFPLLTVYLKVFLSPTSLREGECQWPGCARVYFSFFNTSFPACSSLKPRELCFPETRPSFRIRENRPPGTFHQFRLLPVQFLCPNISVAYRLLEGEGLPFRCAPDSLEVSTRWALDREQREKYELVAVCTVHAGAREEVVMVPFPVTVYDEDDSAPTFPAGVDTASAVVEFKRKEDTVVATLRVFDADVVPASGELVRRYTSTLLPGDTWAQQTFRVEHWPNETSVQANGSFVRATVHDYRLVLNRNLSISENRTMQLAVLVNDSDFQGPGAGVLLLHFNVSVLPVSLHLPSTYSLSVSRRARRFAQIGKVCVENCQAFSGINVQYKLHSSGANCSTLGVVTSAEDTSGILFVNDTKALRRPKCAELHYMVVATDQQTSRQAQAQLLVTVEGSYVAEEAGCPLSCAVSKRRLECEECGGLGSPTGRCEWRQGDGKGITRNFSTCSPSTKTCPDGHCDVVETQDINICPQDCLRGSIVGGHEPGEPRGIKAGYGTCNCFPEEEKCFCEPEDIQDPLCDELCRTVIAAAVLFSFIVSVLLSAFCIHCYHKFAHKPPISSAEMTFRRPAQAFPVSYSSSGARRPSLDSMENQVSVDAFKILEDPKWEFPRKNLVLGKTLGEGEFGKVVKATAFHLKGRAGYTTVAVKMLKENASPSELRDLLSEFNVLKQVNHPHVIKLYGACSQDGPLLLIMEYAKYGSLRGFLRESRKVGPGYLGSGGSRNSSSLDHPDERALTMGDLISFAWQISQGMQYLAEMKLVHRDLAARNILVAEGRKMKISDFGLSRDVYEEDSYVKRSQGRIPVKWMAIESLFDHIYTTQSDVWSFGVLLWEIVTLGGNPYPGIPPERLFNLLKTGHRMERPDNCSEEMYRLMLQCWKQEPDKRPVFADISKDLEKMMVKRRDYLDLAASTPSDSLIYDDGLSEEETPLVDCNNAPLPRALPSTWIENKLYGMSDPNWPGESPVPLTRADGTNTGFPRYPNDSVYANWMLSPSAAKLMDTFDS

SMILES: CN1CCN(c2ccc(C(=O)Nc3n[nH]c4cc(-c5ccc(O)cc5)c(Cc5cc(F)cc(F)c5)cc34)c(NC3CCOCC3)c2)CC1 [Example 3, N-[5-[(3,5-difluorophenyl)methyl]-6-(4-hydroxyphenyl)-1H-indazol-3-yl]-4-(4-methylpiperazin-1-yl)-2-(tetrahydropyran-4-ylamino)benzamide]
- pIC50 (RET V804M): 7.07
- GI50 (BaF3 NPM-ALK L1152R): 18 nM
